Results published in the supplement of paper PMC10307832.

How the values were obtained:
Assay in all cases: relative viability (nuclei count vs DMSO), 5 days (fraction); higher = more cells survive
Tosedostat + Decitabine = compound: CC(C)C[C@@H](C(=O)N[C@H](C(=O)OC1CCCC1)c1ccccc1)[C@H](O)C(=O)NO [Tosedostat] + Nc1ncn([C@H]2C[C@H](O)[C@@H](CO)O2)c(=O)n1 [Decitabine] (partner 2 µM)
How it was run: (§1)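 Values are medians from duplicate plates. Each reflects relative viability, defined as the nuclei count of treated wells over that of vehicle wells. Lung cancer cell lines in 1536-well plates were pin-tool dosed one day after seeding with one drug alone or with a fixed anchor-drug dose plus five library-drug doses (not always all listed) in √10 steps, then fixed, stained and imaged at 4× after 5 days.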

Tosedostat + Vorinostat = compound: CC(C)C[C@@H](C(=O)N[C@H](C(=O)OC1CCCC1)c1ccccc1)[C@H](O)C(=O)NO [Tosedostat] + O=C(CCCCCCC(=O)Nc1ccccc1)NO [Vorinostat] (partner 1 µM)
How it was run: as §1

[1] = compound: CC1=NN=C(O1)C2=NN=C(C=C2)N3CCC(CC3)OC4=C(C=CC(=C4)F)Cl + CS(=O)(=O)CCNCc1ccc(-c2ccc3ncnc(Nc4ccc(OCc5cccc(F)c5)c(Cl)c4)c3c2)o1 [Lapatinib] (partner 2 µM)
How it was run: as §1

[2] = compound: CC1=NN=C(O1)C2=NN=C(C=C2)N3CCC(CC3)OC4=C(C=CC(=C4)F)Cl + Cc1nc(NC(=O)N2CCC[C@H]2C(N)=O)sc1-c1ccnc(C(C)(C)C(F)(F)F)c1 [Alpelisib] (partner 2 µM)
How it was run: as §1

Row | Cell Line | relative viability (Tosedostat + Decitabine; first compound 0.02 µM) | relative viability (Tosedostat + Decitabine; first compound 0.06325 µM) | relative viability (Tosedostat + Decitabine; first compound 0.2 µM) | relative viability (Tosedostat + Decitabine; first compound 0.6325 µM) | relative viability (Tosedostat + Decitabine; first compound 2 µM) | relative viability (Tosedostat + Vorinostat; first compound 0.02 µM) | relative viability (Tosedostat + Vorinostat; first compound 0.06325 µM) | relative viability (Tosedostat + Vorinostat; first compound 0.2 µM) | relative viability (Tosedostat + Vorinostat; first compound 0.6325 µM) | relative viability (Tosedostat + Vorinostat; first compound 2 µM) | relative viability ([1]; first compound 0.253 µM) | relative viability ([1]; first compound 0.8 µM) | relative viability ([1]; first compound 2.53 µM) | relative viability ([1]; first compound 8 µM) | relative viability ([2]; first compound 0.253 µM) | relative viability ([2]; first compound 0.8 µM) | relative viability ([2]; first compound 2.53 µM) | relative viability ([2]; first compound 8 µM)
1 | 201T | 0.835 | 0.894 | 0.879 | 0.891 | 0.846 | 1.01 | 0.997 | 0.99 | 0.962 | 0.981 | 0.392 | 0.471 | 0.524 | 0.435 | 0.594 | 0.614 | 0.578 | 0.563
2 | A549 | 0.264 | 0.337 | 0.24 | 0.193 | 0.292 |  |  |  |  |  | 0.523 | 0.365 | 0.4 | 0.425 | 0.573 | 0.666 | 0.581 | 0.463
3 | A-427 | 0.562 | 0.594 | 0.629 | 0.506 | 0.55 | 0.893 | 0.893 | 0.85 | 0.853 | 0.801 | 0.818 |  | 0.825 | 0.54 | 1.05 |  | 1.02 | 0.882
4 | ABC-1 | 1.17 | 1.13 | 1.27 | 1.19 | 1.05 | 1.33 | 1.29 | 0.954 | 0.974 | 0.693 | 1.13 | 1.07 | 0.92 | 0.887 | 0.729 | 0.567 | 0.568 | 0.642
5 | BEN | 0.79 | 0.761 | 0.676 | 0.734 | 0.665 | 0.645 | 0.602 | 0.678 | 0.761 | 0.888 | 0.607 | 0.729 | 0.743 | 0.61 | 0.767 | 0.899 | 1.05 | 0.901
6 | CAL-12T |  |  |  |  |  | 1.05 | 0.678 | 0.656 | 0.572 | 0.685 | 0.59 | 0.565 | 0.579 | 0.425 | 1.14 | 0.871 | 0.989 | 0.877
7 | COR-L23 | 0.465 | 0.411 | 0.393 | 0.405 | 0.37 | 0.57 | 0.454 | 0.38 | 0.343 | 0.399 | 0.811 | 0.761 | 0.756 | 0.602 | 0.591 | 0.657 | 0.574 | 0.552
8 | COR-L 105 | 0.747 | 0.622 | 0.681 | 0.537 | 0.596 | 0.92 | 0.825 | 1.1 | 0.785 | 0.759 | 0.349 | 0.36 | 0.332 | 0.417 | 0.925 | 1.03 | 1.12 | 1.29
9 | Calu-6 |  |  |  |  |  |  |  |  |  |  | 0.65 | 0.604 | 0.636 | 0.557 | 0.808 | 0.864 | 0.895 | 0.846
10 | ChaGo-K-1 | 0.487 | 0.526 | 0.543 | 0.463 | 0.419 | 0.803 | 0.754 | 0.771 | 0.717 | 0.62 |  |  |  |  |  |  |  | 
11 | EBC-1 |  |  |  |  |  |  |  |  |  |  | 0.208 | 0.191 | 0.182 | 0.197 | 0.752 | 0.908 | 0.756 | 0.74
12 | EKVX | 0.37 | 0.34 | 0.292 | 0.313 | 0.332 | 0.722 | 0.647 | 0.764 | 0.688 | 0.773 | 0.175 | 0.178 | 0.187 | 0.193 | 0.446 | 0.323 | 0.363 | 0.462
13 | EMC-BAC-2 | 1.04 | 0.964 | 0.971 | 0.877 | 0.865 | 0.605 | 0.713 | 0.471 | 0.408 | 0.323 | 0.837 | 0.843 | 0.854 | 0.647 | 0.69 | 0.649 | 0.695 | 0.581
14 | EPLC-272H | 0.364 | 0.37 | 0.363 | 0.328 | 0.254 | 0.509 | 0.489 | 0.347 | 0.401 | 0.269 | 0.809 |  | 1.01 | 0.814 | 0.925 |  | 1.14 | 0.917
15 | H3255 | 0.595 | 0.559 | 0.553 | 0.531 | 0.645 | 0.759 | 0.752 | 0.799 | 0.608 | 0.783 | 0.24 | 0.193 | 0.266 | 0.269 | 0.562 | 0.614 | 0.633 | 0.571
16 | HARA | 0.583 | 0.583 | 0.427 | 0.442 | 0.457 | 1.35 | 0.531 | 0.544 | 0.377 | 0.295 | 0.397 | 0.363 | 0.403 | 0.285 | 0.54 | 0.479 | 0.516 | 0.481
17 | HCC-15 | 0.675 | 0.649 | 0.591 | 0.446 | 0.433 | 0.941 | 0.849 | 0.826 | 0.757 | 0.745 | 0.418 | 0.408 | 0.415 | 0.414 | 0.661 | 0.578 | 0.582 | 0.584
18 | HCC-44 | 0.941 | 0.919 | 0.943 | 0.865 | 0.747 | 1.26 | 1.07 | 1.09 | 1.04 | 1.07 | 0.324 | 0.439 | 0.383 | 0.43 | 0.491 | 0.573 | 0.56 | 0.474
19 | HCC-78 | 0.634 | 0.706 | 0.732 | 0.75 | 0.658 | 0.472 | 0.42 | 0.452 | 0.501 | 0.486 | 0.401 | 0.351 | 0.404 | 0.325 | 0.318 | 0.309 | 0.308 | 0.321
20 | HCC-366 | 0.332 | 0.369 | 0.397 | 0.311 | 0.359 | 0.426 | 0.305 | 0.394 | 0.386 | 0.352 | 0.384 | 0.41 | 0.393 | 0.406 | 0.205 | 0.212 | 0.284 | 0.323
